# In patent publication US8785630B2, “Insecticidal triazines and pyrimidines” (Vestaron Corporation, priority 2011, dated 2014):
# Tested on: beet armyworm (Spodoptera exigua)
# Test: Insecticidal test for beet armyworm, treated diet surface
# Type: in vivo
# Details: 100 μg/cm^2 on diet surface, first instar larvae, 32 insects per treatment, observations 24, 48 and 96 hours
# Method: The compounds identified in Table 8 were prepared according to the previous methods and were tested against beet armyworm and corn earworm as follows:
# Insecticidal Test for Beet Armyworm (Spodoptera exigua).
# To prepare the test solution, the test compound was Formulated at 3499 ppm in solution as 5 mg compound/1.429 mL of 9 parts acetone: 1 part deionized H2O and vortexed to homogenize. 50 μL of the 3499 ppm (equivalent to 100 μg/cm^2 dose on diet surface area) test solution was pipetted upon the surface of 1 mL of solidified cool Southland Products Incorporated Beet Armyworm Diet (201 Stuart Island Road Lake Village, Ark. 71653) using an Eppendorf Repeater Plus with a 1 mL pipette tip. All pipetting of treatments was done in a Labconco Hood. Thirty minutes were allowed for the acetone to evaporate leaving a dose of 100 μg/cm^2 on the surface of the artificial diet. Two 24 hour old first instar Beet Armyworm (Spodoptera Exigua) larvae were placed in each well of the 128 well Bio-BA 128 Bioassay trays (CD International, Pitman, N.J., 08071, USA) using a #0 fine camel hair paint brush. Bioassay trays were sectioned into treatment groups of 8 with 16 replicates per treatment group (32 insects per treatment). Trays containing the treated diet and larvae were covered with a Bio-CV-16 cover (CD International, Pitman, N.J., 08071, USA) and then placed on a rack under florescent lights at 27° C., 20% relative humidity (RH) in the room, and 16 hr light: 8 hr dark for 96 hours. Observations were made 24, 48 and 96 hours after treatment and infestation. The number of insects dead were counted out of the 32 insects total per treatment and the results are given in a table as a percent mortality at a dose of 100 μg/cm^2. When finished, the tray was moved to the −5° C. freezer and left for 24 hr to insure mortality of the remaining S. exigua. After 24 hours, dispose of entire tray into waste bin.
# Keys to the table: Mortality refers to activity against beet army worm (Spodoptera exigua) as defined above at the concentration of 100 μg/cm^2 (A=76-100% mortality, B=51-75% mortality, C=26-50% mortality and D=0-25% mortality).
row,Compound,mortality at 100 µg/cm2
1,"Fc1cccc(Cl)c1-c1cc(Nc2ccc(Cl)cc2)nc(NN=Cc2ccc(OC(F)(F)F)cc2)n1 [Example 52, 6-(2-chloro-6-fluorophenyl)-N-(4-chlorophenyl)-2-(2-(4-(trifluoromethoxy)benzylidene)hydrazinyl)pyrimidin-4-amine]",76 to 100%
2,"Cc1ccc(C=NNc2nc(Nc3ccc(Cl)nc3)nc(-c3c(F)cccc3Cl)n2)cc1 [Example 53, 4-(2-chloro-6-fluorophenyl)-N-(6-chloropyridin-3-yl)-6-(2-(4-methylbenzylidene)hydrazinyl)-1,3,5-triazin-2-amine]",76 to 100%
3,"COc1ccc(C=NNc2nc(Nc3ccc(Cl)nc3)nc(-c3c(F)cccc3Cl)n2)cc1 [Example 54, 4-(2-chloro-6-fluorophenyl)-N-(6-chloropyridin-3-yl)-6-(2-(4-methoxybenzylidene)hydrazinyl)-1,3,5-triazin-2-amine]",76 to 100%
4,"Fc1cc(C=NNc2nc(Nc3ccc(Cl)nc3)nc(-c3c(F)cccc3Cl)n2)ccc1C(F)(F)F [Example 55, 4-(2-chloro-6-fluorophenyl)-N-(6-chloropyridin-3-yl)-6-(2-(3-fluoro-4-(trifluoromethyl)benzylidene)hydrazinyl)-1,3,5-triazin-2-amine]",76 to 100%
5,"FC(F)(F)Oc1ccc(C=NNc2nc(NCc3ccc(Cl)nc3)cc(-c3ccccc3)n2)cc1 [Example 56, N-((6-chloropyridin-3-yl)methyl)-6-phenyl-2-(2-(4-(trifluoromethoxy)benzylidene)hydrazinyl)pyrimidin-4-amine]",76 to 100%
6,"FC(F)(F)Oc1ccc(C=NNc2nc(Nc3ccc(Cl)cc3)cc(-c3ccccc3)n2)cc1 [Example 57, N-(4-chlorophenyl)-6-phenyl-2-(2-(4-(trifluoromethoxy)benzylidene)hydrazinyl)pyrimidin-4-amine]",76 to 100%
7,"FC(F)(F)Oc1ccc(C=NNc2cc(-c3ccccc3)nc(Nc3ccc(Cl)cc3)n2)cc1 [Example 58, N-(4-chlorophenyl)-4-phenyl-6-(2-(4-(trifluoromethoxy)benzylidene)hydrazinyl)pyrimidin-2-amine]",76 to 100%
8,"Fc1cccc(Cl)c1-c1cc(Nc2ccc(Cl)nc2)nc(NN=Cc2ccc(OC(F)(F)F)cc2)n1 [Example 59, 6-(2-chloro-6-fluorophenyl)-N-(6-chloropyridin-3-yl)-2-(2-(4-(trifluoromethoxy)benzylidene)hydrazinyl)pyrimidin-4-amine]",76 to 100%
9,"Fc1cccc(Cl)c1-c1nc(NCc2ccc(Cl)cc2)nc(NN=Cc2ccc(OC(F)(F)F)cc2)n1 [Example 60, 4-(2-chloro-6-fluorophenyl)-N-(4-chlorobenzyl)-6-(2-(4-(trifluoromethoxy)benzylidene)hydrazinyl)-1,3,5-triazin-2-amine]",76 to 100%
10,"FC(F)(F)Oc1ccc(C=NNc2nc(NCc3ccc(Cl)cc3)cc(-c3ccccc3)n2)cc1 [Example 61, N-(4-chlorobenzyl)-6-phenyl-2-(2-(4-(trifluoromethoxy)benzylidene)hydrazinyl)pyrimidin-4-amine]",76 to 100%
